Entries after “also recorded” stand apart in the source; their conditions may differ.

In the test the test system is radial artery. Nature of the test: Radial artery diameter measured with ultrasound after topical application to the wrist. Conditions: for effect on the vasodilatory action of nitroglycerin: adjacent skin sites. The test is classed as in vivo, human. On the procedure: A dose escalation study of topical nitroglycerin was performed. Twenty healthy volunteers were selected based on the following inclusion criteria: willing and able to give written informed consent and comply with study requirements; and able to speak English. In addition, the subjects were selected based on the following exclusion criteria: presence or history of liver, cardiovascular, rheumatologic, cancer or renal disease; current treatment with any vasodilator therapy; systolic blood pressure of less than 90 mmHg; history of radial artery catheterization within the previous year; absence of radial artery blood flow in one or both arms; pregnancy; and active infection.
Each of the twenty selected subjects received either 15 mg or 30 mg of nitroglycerin (Nitro-Bid 2% ointment, 1 or 2 inches, E Fougera & Co, NY) applied to one wrist and a placebo (sorbolene cream) applied to the other wrist. Applications were performed as single-blind (subject) experiments. Radial artery diameter was measured with ultrasound before application of the topical compositions and at time intervals after application of the topical compositions. The subjects were tested again at a later date, where they received the alternate dose of nitroglycerin on one wrist and the placebo on the other wrist.
The same subjects received topical applications of nitroglycerin (30 mg) with either 20 mg or 40 mg of lidocaine topical cream (LMX 4%, Ferndale, Mich.). The nitroglycerin and lidocaine were applied at adjacent skin sites on the wrist.

In the case of `CCN(CC)CC(=O)Nc1c(C)cccc1C` [lidocaine], the “effect on the vasodilatory action of nitroglycerin” value was “no detectable effect” (20 mg lidocaine topical cream with 30 mg nitroglycerin, FIG. 2) and “did not prevent the vasodilation; also recorded: no detectable effect” (40 mg lidocaine topical cream with 30 mg nitroglycerin, FIG. 3). Also, the “effect on arterial diameter” value (lidocaine alone, topical, FIG. 3) was “no appreciable effect”.
`O=[N+]([O-])OCC(CO[N+](=O)[O-])O[N+](=O)[O-]` [nitroglycerin]: the “increase in radial artery diameter compared to the placebo” value (15 mg nitroglycerin topical on one wrist, healthy volunteers, FIG. 1) is reported as “did not significantly increase”. Also, under “30 mg nitroglycerin topical on one wrist, healthy volunteers, FIG. 1”, the “increase in radial artery diameter” value is on record as “approximately 25%”. Under “30 mg nitroglycerin topical, 2-hour application”, the “duration of the increase in radial artery diameter” value is on record as “maintained during the 2-hour application”. The “vasodilation (radial artery diameter versus time)” value (30 mg nitroglycerin topical, FIG. 1) is reported as “significant vasodilation”. Further, the “diameter of the radial artery in the contralateral wrist” value (topical nitroglycerin on the other wrist) was “did not affect”.

(Values after patent US9302085B2, “Methods and compositions for facilitating arterial access” (The Regents of the University of California, priority 2009, dated 2016).)
